Experimental data: ChEMBL document CHEMBL1128397, “Novel 2,4-diamino-5-substituted-pyrrolo[2,3-d]pyrimidines as classical and nonclassical antifolate inhibitors of dihydrofolate reductases” (J Med Chem, 1995)

B1: Folylpolyglutamate synthase, mitochondrial (Homo sapiens), Q05932 (protein)
chain: MSRARSHLRAALFLAAASARGITTQVAARRGLSAWPVPQEPSMEYQDAVRMLNTLQTNAGYLEQVKRQRGDPQTQLEAMELYLARSGLQVEDLDRLNIIHVTGTKGKGSTCAFTECILRSYGLKTGFFSSPHLVQVRERIRINGQPISPELFTKYFWRLYHRLEETKDGSCVSMPPYFRFLTLMAFHVFLQEKVDLAVVEVGIGGAYDCTNIIRKPVVCGVSSLGIDHTSLLGDTVEKIAWQKGGIFKQGVPAFTVLQPEGPLAVLRDRAQQISCPLYLCPMLEALEEGGPPLTLGLEGEHQRSNAALALQLAHCWLQRQDRHGAGEPKASRPGLLWQLPLAPVFQPTSHMRLGLRNTEWPGRTQVLRRGPLTWYLDGAHTASSAQACVRWFRQALQGRERPSGGPEVRVLLFNATGDRDPAALLKLLQPCQFDYAVFCPNLTEVSSTGNADQQNFTVTLDQVLLRCLEHQQHWNHLDEEQASPDLWSAPSPEPGGSASLLLAPHPPHTCSASSLVFSCISHALQWISQGRDPIFQPPSPPKGLLTHPVAHSGASILREAAAIHVLVTGSLHLVGGVLKLLEPALSQ

Tests used:
CCRF-CEM [1] = experiment: Compound was evaluated for the growth inhibition of R30dm, a CCRF-CEM subline resistant to intermittent MTX exposure solely as a result of decreased polyglutamylation.; assay type: functional, cell-based; settings: Homo sapiens
CCRF-CEM [2] = experiment: Compound was evaluated for the growth inhibition of R2, a CCRF-CEM subline resistant to MTX as a result of deffective uptake.; assay type: functional, cell-based; settings: Homo sapiens
CCRF-CEM [3] = experiment: Compound was evaluated for the growth inhibition of parental CCRF-CEM; assay type: functional, cell-based; settings: Homo sapiens
[4] = target: T1, Bifunctional dihydrofolate reductase-thymidylate synthase (Toxoplasma gondii, UniProt Q07422)
T1 sequence (Q07422 whole entry): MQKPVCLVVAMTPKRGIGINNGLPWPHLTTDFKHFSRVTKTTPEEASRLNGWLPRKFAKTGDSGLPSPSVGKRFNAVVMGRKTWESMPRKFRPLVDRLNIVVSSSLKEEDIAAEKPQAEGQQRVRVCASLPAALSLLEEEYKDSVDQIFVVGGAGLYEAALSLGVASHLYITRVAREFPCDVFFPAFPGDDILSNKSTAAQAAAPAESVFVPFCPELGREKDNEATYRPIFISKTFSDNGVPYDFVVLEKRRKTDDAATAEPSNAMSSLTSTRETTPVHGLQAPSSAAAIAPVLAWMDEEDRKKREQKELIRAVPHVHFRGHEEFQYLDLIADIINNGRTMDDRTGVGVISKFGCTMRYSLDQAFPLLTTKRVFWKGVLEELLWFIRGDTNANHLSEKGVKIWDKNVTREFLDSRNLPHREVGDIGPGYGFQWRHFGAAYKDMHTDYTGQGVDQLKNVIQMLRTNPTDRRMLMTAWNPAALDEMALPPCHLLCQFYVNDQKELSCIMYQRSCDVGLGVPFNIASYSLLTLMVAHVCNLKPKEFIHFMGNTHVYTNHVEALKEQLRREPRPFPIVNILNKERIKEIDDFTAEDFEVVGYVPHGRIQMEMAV
Description: Inhibition of Toxoplasma gondii (tc) Dihydrofolate reductase

Dihydrofolate reductase [5] = target: T2, Dihydrofolate reductase (Pneumocystis carinii, UniProt P16184)
T2 sequence (P16184 whole entry): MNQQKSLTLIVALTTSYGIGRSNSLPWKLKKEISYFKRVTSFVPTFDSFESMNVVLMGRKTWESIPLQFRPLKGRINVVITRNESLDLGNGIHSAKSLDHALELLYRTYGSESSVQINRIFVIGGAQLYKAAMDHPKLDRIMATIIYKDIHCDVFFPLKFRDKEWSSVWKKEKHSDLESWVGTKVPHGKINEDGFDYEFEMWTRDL
Description: Inhibition of Pneumocystis carinii (pc) Dihydrofolate reductase

[6] = Relative Vmax of compound was measured.; assay type: ADME
FaDu = experiment: Growth inhibition of human squamous carcinoma cell lines following continuous (120 hours) exposure to MTX and compound FaDu cell line; assay type: functional, cell-based
A253 cell line = experiment: Growth inhibition of human squamous carcinoma cell lines following continuous (120 hours) exposure to MTX and compound A253 cell line; assay type: functional, cell-based; settings: A253, 120 h
Dihydrofolate reductase [7] = target: T3, Dihydrofolate reductase (Rattus norvegicus, UniProt Q920D2)
T3 sequence (Q920D2 whole entry): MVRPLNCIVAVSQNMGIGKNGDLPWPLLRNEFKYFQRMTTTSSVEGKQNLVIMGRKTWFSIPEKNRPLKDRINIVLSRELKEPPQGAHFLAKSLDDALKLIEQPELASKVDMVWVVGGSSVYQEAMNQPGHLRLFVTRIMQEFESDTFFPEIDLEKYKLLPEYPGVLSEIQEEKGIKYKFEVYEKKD
Description: Inhibition of rat liver Dihydrofolate reductase

[8] = Ratio of the IC50 against rat liver DHFR and Toxoplasma gondii DHFR (IC50rl/IC50tg)
[9] = Ratio of IC50 against rat liver DHFR and Pneumocystis carinii DHFR (IC50rl/IC50pc)
[10] = compound: Nc1nc(N)c2nc(CNc3ccc(C(=O)N[C@@H](CCC(=O)O)C(=O)O)cc3)cnc2n1; experiment: Inhibitory activity of compound was measured for CCRF-CEM human leukemia cell Folyl-polyglutamate synthase
[11] = target: Folylpolyglutamate synthase, mitochondrial (Homo sapiens) (UniProt Q05932); experiment: Inhibitory activity of compound was measured for CCRF-CEM human leukemia cell Folyl-polyglutamate synthase

Molecule | IC50 [4] [nM] | IC50 (Dihydrofolate reductase [5]) [nM] | IC50 (Dihydrofolate reductase [7]) [nM] | Selectivity ratio [8] | Selectivity ratio [9] | also measured
Nc1nc(N)c2c(CNc3ccc(C(=O)NC(CCC(=O)O)C(=O)O)cc3)c[nH]c2n1 (stereo not given) | 210 | 38 | – | – | – | EC50 (CCRF-CEM [1]): 36 nM; EC50 (CCRF-CEM [2]): 1650 nM; EC50 (CCRF-CEM [3]): 12.8 nM; Vmax [6]: 0.72; EC50 (FaDu): 22 nM; EC50 (A253 cell line): 46 nM
Nc1nc(N)c2c(CNc3cccc4ccccc34)c[nH]c2n1 | 1100 | 307000 | 59300 | 53.9 | 0.2 | –
COc1ccc(OC)c(NCc2c[nH]c3nc(N)nc(N)c23)c1 | 1700 | – | 156000 | 92 | 3.4 | –
COc1cc(NCc2c[nH]c3nc(N)nc(N)c23)cc(OC)c1OC | 8100 | > 23000 | 56300 | 7 | < 2.4 | –
CN(Cc1cnc2nc(N)nc(N)c2n1)c1ccc(C(=O)N[C@@H](CCC(=O)O)C(=O)O)cc1 [METHOTREXATE] | – | – | – | – | – | EC50 (FaDu): 31 nM; EC50 (A253 cell line): 17 nM
CCOc1ccc(OCC)c(NCc2c[nH]c3nc(N)nc(N)c23)c1 | – | 21000 | – | – | – | –
Nc1nc(N)c2c(CNc3ccccc3)c[nH]c2n1 | – | – | – | > 65 | < 1 | –
Nc1nc(N)c2nc(CNc3ccc(C(=O)N[C@@H](CCC(=O)O)C(=O)O)cc3)cnc2n1 [AMINOPTERIN] | – | – | – | – | – | Vmax [6]: 1
COc1ccc(NCc2c[nH]c3nc(N)nc(N)c23)cc1 | 6000 | 279000 | 63000 | 10.5 | 0.23 | –
B1 | – | – | – | – | – | Km [10]: 4.3 µM; Km [11]: < 1 µM
